What was measured:
[1] = test system: HepG2 cells; assay: Cell proliferation assay (CCK-8), HepG2; format: cell-based, human; details: for IC50: Homo sapiens, HepG2, mean ± SD, at least three independent experiments; for Inhibitory Ratio (%) HepG2: 50 μM
Protocol: (§1) The human HCC cell lines QGY-7703, SMMC-7721 and HepG2 and the liver cell line QSG-7701 were supplied by the Cell Resource Center, Institute of Life Sciences, Chinese Academy of Medical Science. QGY-7703, SMMC-7721 and QSG-7701 cells were cultured in 1640 medium (Gibco), and HepG2 cells were cultured in DMEM medium (Gibco) at 37 °C in moist air supplemented with 5% CO2. All media were supplemented with 10% fetal bovine serum (FBS) and 100 Units/mL of penicillin/streptomycin.
(§2) The cell viability assay was performed as previously reported using a Cell Counting Kit-8 (CCK-8; Dojindo, Kumamoto, Japan)[33][34]. The relative cell viability was presented as % inhibition and calculated using the following formula: […]

[2] = test system: QGY-7703 cells; assay: Cell proliferation assay (CCK-8), QGY-7703; format: cell-based, human; details: for IC50: Homo sapiens, QGY-7703, mean ± SD, at least three independent experiments; for Inhibitory Ratio (%) QGY-7703: 50 μM
Protocol: as §1, §2

[3] = test system: SMMC-7721 cells; assay: Cell proliferation assay (CCK-8), SMMC-7721; format: cell-based, human; details: Homo sapiens, SMMC-7721; mean ± SD, at least three independent experiments
Protocol: as §1, §2

[4] = test system: QSG-7701 hepatocytes; assay: Cell proliferation assay (CCK-8), QSG-7701 hepatocytes; format: cell-based, human; details: Homo sapiens, QSG7701; nonmalignant hepatocytes; mean ± SD
Protocol: as §1, §2

[5] = test system: HepG2 cells; assay: Apoptosis assay, Annexin V-FITC/PI flow cytometry; format: cell-based, human; details: 48 h
Protocol: To further explore the potential mechanisms of the antiproliferative effects induced by compound 7 and ISJ, Annexin V-FITC/PI double staining was performed to quantify cellular apoptosis by flow cytometry. HepG2 cells were cultured for 48 h in the absence or presence of compound 7 or ISJ at different concentrations (5 or 15 μM).
HepG2 cells were seeded in six-well plates (5 × 10^5 cells/mL) for 24 h and then treated with various amounts of the compounds or 1% DMSO (as control). After 48 h, the cells floating in the medium were collected, and the adherent cells were detached with 0.05% trypsin, washed twice with cold PBS, and centrifuged at 1000 rpm for 5 min at 4 °C. Subsequently, HepG2 cells were gently resuspended in the binding buffer. Thereafter, the cells were stained using the Annexin V-FITC/PI apoptosis detection kit (BD Biosciences, San Jose, CA, USA). After incubation at room temperature for 15 min in the dark, the apoptotic cells were immediately analyzed by flow cytometry (FACS Calibur).

[6] = test system: HepG2 cells; assay: Wound healing (migration) assay; format: cell-based, human; details: 10 μM, 24 h
Protocol: (§3) Cell migration and invasion potencies were studied using wound healing and Matrigel invasion assays. The wound healing assay was performed by scratching the cell surface with a 10 μL pipette tip. Then, the cells were treated with compound 7 and ISJ (10 μM) and incubated for 24 h before being photographed under a microscope (DMI3000 B, Leica). Wound closure was evaluated using ImageJ software. Invasion through a Matrigel-coated filter was measured in transwell chambers (Corning Costa) as described previously, with minor modifications. Briefly, HepG2 Cells (2 × 10^5/well) were suspended in serum-free medium and added to the upper chamber of the Matrigel plate. FBS (10%) was used as the chemoattractant in the lower chamber. After incubation for 24 h, the non-invading cells were removed from the upper surface of the insert membrane with a cotton swab. The invading cells were fixed with methanol and stained with Giemsa (Sigma). Cells in five randomly selected fields were photographed, and the numbers of cells that crossed the membrane were counted.

[7] = test system: HepG2 cells; assay: Matrigel invasion assay; format: cell-based, human; details: Homo sapiens, HepG2, 24 h, read-out: inhibition of invasiveness compared to control
Protocol: as §3

[8] = test system: PKC; assay: PKC activity assay (PepTag non-radioactive, HepG2 lysates); format: biochemical, human; details: 3 h
Protocol: The activity of PKC in HepG2 cells was assessed 3 h after the addition of compound 7 or ISJ by measuring the phosphorylation of a PKC-specific target peptide. Compared to the basal control (in the absence of any compound), PKC activity was inhibited by compound 7 and ISJ.
Figure 3 Effects of compound 7 and ISJ on PKC activity in HepG2 cells. The proteins from lysed HepG2 cells were prepared and measured for their ability to phosphorylate a PKC-specific peptide substrate (PLSRTLSVAAK) in a non-radioactive assay. (a) Lanes 1 and 2 show the negative (water only) and positive controls (with 20 ng purified PKC). Supernatants from HepG2 cells were subjected to the PKC activity assay in the absence (basal control, lane 3) or presence (lanes 4–7) of the compounds. Compound 7 (lanes 4 and 5) and ISJ (lanes 6 and 7) were added separately at 10 and 5 μM. (b) Quantification of (a); *P < 0.05 versus the basal control. Data are shown as the mean ± SD of three independent experiments.
The PKC activity assay was carried out as previously reported, according to the instructions of the PepTag non-radioactive PKC assay kit (Promega)[60]. The bands were photographed using the Syngene GBOX-iCHEMI-XR system, and the phosphorylated bands were cut out for quantification measurement at 570 nm.

[9] = test system: PKCζ; assay: Western blot of PKC isoform expression in cytosol and membrane; format: cell-based, human; details: HepG2, 24 h incubation
Protocol: To further determine whether compound 7 and ISJ represent potential candidates for selective PKC expression inhibitors against hepatoma, the expression of PKC isoforms in HepG2 cells was characterized by western blotting. After 24 h of incubation with GFX, GO, ISJ and compound 7 at the indicated concentrations, PKC proteins from the cytosol and membrane of HepG2 cells were evaluated. ISJ and compound 7 treatments reduced both the cytosol and cell membrane expression of PKCζ.
(§4) The total membrane and cytosolic proteins were extracted using a Membrane and Cytosol Protein Extraction Kit (Beyotime). Extracted proteins from cells or animal tissues were separated by SDS-PAGE and transferred to polyvinylidene difluoride (PVDF) membranes (Bio-Rad). The PVDF membranes were blocked with 5% nonfat milk and incubated with primary antibodies overnight, followed by incubation with a donkey anti-rabbit or anti-mouse secondary antibody (IRDye 800, LI-COR, Biosciences). The images were captured using the Odyssey Infrared Imaging System (LI-COR, Biosciences), according to the manufacturer's instructions. The intensity was quantitative with Quantity One software (Bio-Rad). To ensure equal protein loading, each membrane was stripped and reprobed with an anti-β-actin antibody. All experiments were repeated independently no less than three times.

[10] = test system: HepG2 xenografts; assay: Antitumor activity in vivo, HepG2 xenograft; parameters: species or system BALB/c-nu nude mice; details: 5 mg/kg, tail vein injection every other day for two weeks
Protocol: Four-week-old male BALB/c-nu nude mice (15–20 g) were obtained from the Shanghai SLAC Laboratory Animal Co., Ltd. (Shanghai, China). The animals were maintained under specific pathogen-free conditions with food and water supplied ad libitum in the Laboratory Animal Center of the Second Military Medical University. All animal experiments were carried out in accordance with the Guide for the Care and Use of Laboratory Animals of the National Institutes of Health and were approved by the Committee on the Ethics of Animal Experiments of the Second Military Medical University, China.
(§5) HepG2 cells were harvested and resuspended in PBS. A total of 5 × 10^6 cells were subcutaneously injected into the right flank. Tumor volume was calculated using the following formula: V = (L × W^2)/2, where L is the length and W is the width of the tumor nodules measured with vernier calipers. Once the volume of the tumors reached 75–100 mm^3, the mice were randomly divided into three groups (n = 5). The mice were treated every other day for two weeks with tail vein injections of either vehicle (5% ethanol and 2.5% polyethylene glycol in saline), compound 7, or ISJ (5 mg/kg in the vehicle). Body weights were measured before each drug injection. After the 15th day, the mice were euthanized, and the tumors were isolated, weighed and photographed.

[11] = Body weight in xenograft study; format: in vivo, BALB/c-nu nude mice; details: 5 mg/kg, tail vein, two weeks
Protocol: as §5

[12] = test system: c-PARP, c-Cas3 and c-Cas9 in xenograft tumors; assay: Histology, IHC and immunoblot of xenograft tumors; format: in vivo, BALB/c-nu nude mice; details: 5 mg/kg
Protocol: as §4
To further confirm the antitumor activities of compound 7 and ISJ in vivo, histological analysis was performed on the hepatoma xenografts. Briefly, the samples were fixed in a 10% formalin solution, processed, embedded, sectioned and either H&E stained to reveal tumor tissue necrosis or IHC stained using antibodies against c-PARP, c-Cas3 or c-Cas9. The H&E and IHC images were obtained on a Leica DMI3000 B phase-contrast microscopy. The immunoreactive areas in the IHC images were quantified using ImagePro Plus 6.0 software (Media Cybernetics, Silver Spring, MD). The integrated optical density (IOD) values were represented as the mean ± SEM.

[13] = test system: advanced HCC; parameters: method as in PMID 18650514; details: patients with advanced HCC; cited from earlier work

Compound | Inhibitory Ratio (%) HepG2 [1] [%] | Inhibitory Ratio (%) QGY-7703 [2] [%] | further results
O=c1[nH]cc(F)c(=O)[nH]1 [5-Fu, 5-Fluorouracil, reference compound] |  |  | IC50 [1]: 12.48 ± 0.11 µM; IC50 [2]: 15.66 ± 0.07 µM; IC50 [3]: 14.6 ± 0.36 µM; IC50 [4]: 0.6 ± 0.03 µM
COc1cc(OC)c2c(=O)c3ccc(OC)c(OC)c3oc2c1 [compound 5] | 22.61 | 20.81 | melting point: 138 to 140 °C
O=c1c2ccc(O)c(O)c2oc2cc(O)cc(O)c12 [compound 6] | 13.80 | −0.66 | 
O=c1c2ccc3c(c2oc2cc(O)cc(O)c12)OC(c1ccccc1)(c1ccccc1)O3 [compound 7, 7,9-dihydroxy-2,2-diphenyl-6H-[1,3]dioxolane[4,5-c]xanthen-6h-one] | 90.99 | 79.93 | IC50 [1]: 7.34 ± 0.09 µM; IC50 [2]: 9.88 ± 0.18 µM; IC50 [3]: 6.35 ± 0.42 µM; IC50 [4]: 53.51 ± 0.13 µM; number of apoptotic cells compared to the control group ([5]; 5 μM): did not alter; percentage of apoptotic cells ([5]; 15 μM): increased significantly; decrease of HepG2 cell migration compared to control [6]: 76.4%; inhibition at 10 µM [7]: 69%; inhibition of PKC activity compared to the basal control ([8]; 5 μM): 40.9%; inhibition of PKC activity compared to the basal control ([8]; 10 μM): 54.1%; PKCζ expression in cytosol and cell membrane [9]: reduced; reduction of tumor weight compared to controls [10]: 49.4%; change in body weight compared to vehicle-treated controls [11]: no significant change; H&E staining of xenograft tumors [12]: significant tissue death; IHC c-PARP, c-Cas3 and c-Cas9 levels in tumors [12]: upregulated expression; immunoblot c-PARP, c-Cas3 and c-Cas9 levels in tumor tissue [12]: increased
C#CC(C)(C)Oc1cc(O)c2c(=O)c3ccc4c(c3oc2c1)OC(c1ccccc1)(c1ccccc1)O4 [compound 8] | 6.88 | −9.85 | 
C#CC(C)(C)Oc1cc(OS(=O)(=O)c2ccc(C)cc2)c2c(=O)c3ccc4c(c3oc2c1)OC(c1ccccc1)(c1ccccc1)O4 [compound 9] | 12.46 | −3.98 | 
Cc1ccc(S(=O)(=O)Oc2cc3c(c4oc5c6c(ccc5c(=O)c24)OC(c2ccccc2)(c2ccccc2)O6)C=CC(C)(C)O3)cc1 [compound 10] | 18.01 | 0.66 | 
Cc1ccc(S(=O)(=O)Oc2cc3c(c4oc5c(O)c(O)ccc5c(=O)c24)C=CC(C)(C)O3)cc1 [compound 11] | 45.36 | 21.44 | 
COc1ccc2c(=O)c3c(OC)cc(OC)c(C=O)c3oc2c1OC [compound 12] | 26.12 | 20.97 | 
CCOC(=O)/C=C/c1c(OC)cc(OC)c2c(=O)c3ccc(OC)c(OC)c3oc12 [compound 13] | 47.29 | 16.17 | 
CCOC(=O)[C@@H](O)[C@H](O)c1c(OC)cc(OC)c2c(=O)c3ccc(OC)c(OC)c3oc12 [compound 14] | 25.40 | 13.15 | 
COc1ccc2c(=O)c3c(OC)cc(OC)c(I)c3oc2c1OC [compound 15] | 24.07 | −1.75 | 
COc1ccc2c(=O)c3c(OC)cc(OC)c(/C=C/C(C)(C)O)c3oc2c1OC [compound 16] | 15.95 | 13.26 | 
CNC(=O)c1cc(Oc2ccc(NC(=O)Nc3ccc(Cl)c(C(F)(F)F)c3)cc2)ccn1 [sorafenib] |  |  | improvement of overall survival [13]: approximately three

— article PMC4526861, “Inhibition of protein kinase C by isojacareubin suppresses hepatocellular carcinoma metastasis and induces apoptosis in vitro and in vivo” (Scientific Reports, 2015)
